Source: patent US12329738B2, “Urolithin A and a composition containing same for external use in inflammations of various etiologies” (WARSZAWSKI UNIWERSYTET MEDYCZNY, priority 2018, dated 2025)

How the values were obtained:
TNF-alpha [1] = experiment: TNF-alpha production by THP-1 derived macrophages (ELISA); format: cell-based, human; settings: 40 μM; LPS stimulation; FIG. 13
Method: (§1) Monocytes of the THP-1 line were cultured in RPMI 1640 medium supplemented with 10% FBS and 2 mM glutamine. For transformation of monocytes into macrophages, the cells were treated with 12.5 ng/mL PMA (phorbol 12-myristate 13-acetate) for 48 hours, then washed and incubated for 24 hours in a culture medium without PMA. After this time, urolithin A, urolithin B, iso-urolithin A and the corresponding glucuronides (GUA, GUB and GiUA) were added to the cells at a concentration of 40 μM. After 1 hour of incubation with the compounds, the cells were stimulated with LPS from Escherichia coli (10 ng/mL).
(§2) To assess the level of TNF-alpha production, the cells were incubated for 6 hours, to assess the expression of mRNA for TNF-alpha, the cells were incubated for 24 hours, to assess the effect on ERK1/2 phosphorylation, the cells were incubated for 35 minutes.
(§3) The level of TNF-alpha in the culture medium was determined using the immunochemical ELISA method (BD biosciences). Evaluation of the expression of mRNA for TNF-alpha was performed using real time PCR. After 24 hours of incubation, RNA was isolated using NucleoSpin RNA Clean-up (Macherey-Nagel). The amount and quality of isolated RNA was determined using 2100 Bioanalyzer (Agilent Technologies). The expression level of mRNA for TNF-α was determined using Brilliant II SYBR Green QPCR Kit and Aria Mx Real-Time PCR thermocycler (Agilent Technologies). The following were used as primers for TNF-alpha: forward: 5′-[…]-3′, reverse: 5′-[…]-3′. Beta-actin (ACTB) was used as the housekeeping gene; primer forward: 5′-[…]-3′, reverse: 5′-[…]-3′).
(§4) The obtained results of experiments on in vitro models were analyzed using the Statistica 13 program (StatSoft, Inc., Tulsa, OK, USA) and presented as mean values±SEM. Statistical significance was set at P≤0.05. The results with established normal distribution in the D'Agostin and Pearson test were prepared using analysis of variance (ANOVA). Parametric post-hoc analysis was performed using Dunnett's test.

[2] = system: Wistar rats (DNCB-induced atopic dermatitis); experiment: Ear thickness (edema) in DNCB-induced atopic dermatitis rat model; format: in vivo
Method: It is similar to the indications for use of hydrocortisone, which was used as a positive control in the study. Urolitin A was obtained by synthesis according to Bialonska et al. (Bialonska et al., 2009) or purchased from Sigma-Aldrich. The ointment containing urolithin A was prepared by emulsifying the weighed substance into a solid vehicle (white petrolatum) using an unguator. Wistar rats aged 5-6 weeks (at the start of the experiment) kept under standard conditions with free access to feed and water were used for the tests. The animals were divided into 5 groups, 8 individuals in each group. To prepare 2,4-dinitrochlorobenzene (DNCB) composition inducing inflammation, DNCB was dissolved in 70% ethanol to a final concentration of 1.5% (w/v). Therapeutic composition was an ointment based on white petrolatum with 0.2% or 1.0% urolithin A added. The control ointment was white petrolatum without addition of urolithin A. The induction of chronic atopic dermatitis involved local 9-fold infiltration with 60 μl 1.5% 2,4-dinitrochlorobenzene (DNCB) on each (external and internal) surface of the right ear over 3 weeks (3 times a week). Negative control was the right ear of rats without induction inflammation. Treatment of atopic dermatitis with 0.2% or 1.0% urolithin composition and white petrolatum (control) or 1.0% hydrocortisone composition (positive control) was started eight days after sensitization—one day before the fourth application of DNCB. Ointments with appropriate for given group drug added were applied in a total volume of about 20 μl to each ear surface one day before and 6 hours after each DNCB application (for a period of 3 weeks). The negative control group consisted of rats without induced inflammation and treated with white petrolatum in a regimen analogous to the composition of urolithin A or hydrocortisone. Ear thickness was assessed using an electronic mini caliper the day before inflammation was induced (day 0) and then on days 4 and 8 prior to treatment and on days 4, 8, 12, 16, […] of therapy with urolithin A composition (on days 12, 16, 20, 24, 28 and 32 after inflammation inducing, respectively). The experimental results obtained were analyzed using the Statistica 7.1 program (StatSoft, Inc., Tulsa, OK, USA) and presented as mean values±SE. Statistical significance was set at P≤0.05. The results with established normal distribution in the D'Agostin and Pearson test were prepared using two- or three-factor analysis of variance (ANOVA). Parametric post-hoc analysis for individual time points was performed using the Bonferroni test.

[3] = system: Wistar rats (DNCB-induced atopic dermatitis); experiment: Pruritus level (scratch reflexes) in DNCB-induced atopic dermatitis rat model; format: in vivo; settings: topical ointment; urolithin A 0.2 and 1.0% (p<0.001), hydrocortisone 1% (p<0.01)
Method: Wistar rats aged 5-6 weeks (at the start of the experiment) kept under standard conditions with free access to feed and water were used for the tests. The animals were divided into 5 groups, 8 individuals in each group. To prepare 2,4-dinitrochlorobenzene (DNCB) composition inducing inflammation, DNCB was dissolved in 70% ethanol to a final concentration of 1.5% (w/v). Therapeutic composition was an ointment based on white petrolatum with 0.2% or 1.0% urolithin A added. The control ointment was white petrolatum without addition of urolithin A. The induction of chronic atopic dermatitis involved local 9-fold infiltration with 60 μl 1.5% 2,4-dinitrochlorobenzene (DNCB) on each (external and internal) surface of the right ear over 3 weeks (3 times a week). Negative control was the right ear of rats without induction inflammation. Treatment of atopic dermatitis with 0.2% or 1.0% urolithin composition and white petrolatum (control) or 1.0% hydrocortisone composition (positive control) was started eight days after sensitization—one day before the fourth application of DNCB. Ointments with appropriate for given group drug added were applied in a total volume of about 20 μl to each ear surface one day before and 6 hours after each DNCB application (for a period of 3 weeks). The negative control group consisted of rats without induced inflammation and treated with white petrolatum in a regimen analogous to the composition of urolithin A or hydrocortisone. Measurement of pruritus level (as measured by scratching reflexes) was evaluated as the total frequency of scratch reflexes during 10 minutes immediately after DNCB application on days 0, 4, 8, 12, 16, 20, 24, 28 and 32 of the experiment). Scratching was defined as a single or series of several reflexes of scratching with a paw directed at the site of DNCB application. The experimental results obtained were analyzed using the Statistica 7.1 program (StatSoft, Inc., Tulsa, OK, USA) and presented as mean values±SE. Statistical significance was set at P≤0.05. The results with established normal distribution in the D'Agostin and Pearson test were prepared using two- or three-factor analysis of variance (ANOVA). Parametric post-hoc analysis for individual time points was performed using the Bonferroni test.

[4] = system: Wistar rats (DNCB-induced atopic dermatitis); experiment: Peripheral blood morphology in DNCB-induced atopic dermatitis rat model; format: in vivo
Method: Wistar rats aged 5-6 weeks (at the start of the experiment) kept under standard conditions with free access to feed and water were used for the tests. The animals were divided into 5 groups, 8 individuals in each group. To prepare 2,4-dinitrochlorobenzene (DNCB) composition inducing inflammation, DNCB was dissolved in 70% ethanol to a final concentration of 1.5% (w/v). Therapeutic composition was an ointment based on white petrolatum with 0.2% or 1.0% urolithin A added. The control ointment was white petrolatum without addition of urolithin A.
The induction of chronic atopic dermatitis involved local 9-fold infiltration with 60 μl 1.5% 2,4-dinitrochlorobenzene (DNCB) on each (external and internal) surface of the right ear over 3 weeks (3 times a week). Negative control was the right ear of rats without induction inflammation.
Treatment of atopic dermatitis with 0.2% or 1.0% urolithin composition and white petrolatum (control) or 1.0% hydrocortisone composition (positive control) was started eight days after sensitization—one day before the fourth application of DNCB. Ointments with appropriate for given group drug added were applied in a total volume of about 20 μl to each ear surface one day before and 6 hours after each DNCB application (for a period of 3 weeks). The negative control group consisted of rats without induced inflammation and treated with white petrolatum in a regimen analogous to the composition of urolithin A or hydrocortisone.
2 mL blood samples were drawn into syringes (containing heparin as an anticoagulant) from the heart under general anesthesia (isoflurane) on day 32 of the experiment. The test was conducted using the DIATRON automated hematology analyzer. Peripheral blood analysis included the assessment of morphotic elements in blood: erythrocytes, leukocytes and thrombocytes and determination of the number and percentage of different types of leukocytes—WBC as well as values of erythrocyte indicators: hemoglobin (HGB), hematocrit (HCT), mean corpuscular volume (MCV), mean corpuscular hemoglobin (MCH) and mean corpuscular hemoglobin concentration (MCHC).
The experimental results obtained were analyzed using the Statistica 7.1 program (StatSoft, Inc., Tulsa, OK, USA) and presented as mean values±SE. Statistical significance was set at P≤0.05. The results with established normal distribution in the D'Agostin and Pearson test were prepared using two- or three-factor analysis of variance (ANOVA). Parametric post-hoc analysis for individual time points was performed using the Bonferroni test.

mRNA for TNF-alpha = experiment: TNF-alpha mRNA expression in THP-1 derived macrophages (real time PCR); format: cell-based, human; settings: 40 μM; LPS stimulation; FIG. 14
Method: as §1, §2, §3, §4

ERK1/2 = ERK1/2 phosphorylation in THP-1 derived macrophages (Western blotting); format: cell-based, human; settings: 40 μM; LPS 10 ng/mL, 35 min; FIG. 15
Method: Monocytes of the THP-1 line were cultured in RPMI 1640 medium supplemented with 10% FBS and 2 mM glutamine. For transformation of monocytes into macrophages, the cells were treated with 12.5 ng/mL PMA (phorbol 12-myristate 13-acetate) for 48 hours, then washed and incubated for 24 hours in a culture medium without PMA. After this time, urolithin A, urolithin B, iso-urolithin A and the corresponding glucuronides (GUA, GUB and GiUA) were added to the cells at a concentration of 40 μM. After 1 hour of incubation with the compounds, the cells were stimulated with LPS from Escherichia coli (10 ng/mL). To assess the level of TNF-alpha production, the cells were incubated for 6 hours, to assess the expression of mRNA for TNF-alpha, the cells were incubated for 24 hours, to assess the effect on ERK1/2 phosphorylation, the cells were incubated for 35 minutes. […] The obtained results of experiments on in vitro models were analyzed using the Statistica 13 program (StatSoft, Inc., Tulsa, OK, USA) and presented as mean values±SEM. Statistical significance was set at P≤0.05. The results with established normal distribution in the D'Agostin and Pearson test were prepared using analysis of variance (ANOVA). Parametric post-hoc analysis was performed using Dunnett's test.

TNF-alpha [5] = experiment: TNF-alpha production by macrophages from human peripheral blood monocytes (ELISA); format: cell-based; settings: 40 μM; LPS 100 ng/mL, 24 h; FIG. 16
Method: Monocytes were isolated from peripheral human blood by a standard method using dextran sedimentation and Ficoll Hypaque gradient centrifugation. After isolation, monocytes were suspended in RPMI 1640 medium supplemented with L-glutamine, HEPES, streptomycin, amphotericin and gentamicin, and 20% autologous serum. Cell culture was carried out under these conditions for 7 days. […] After 24h, TNF-alpha level in the medium was determined using the immunochemical ELISA method (BD biosciences). The obtained results of experiments on in vitro models were analyzed using the Statistica 13 program (StatSoft, Inc., Tulsa, OK, USA) and presented as mean values±SEM. Statistical significance was set at P≤0.05. The results with established normal distribution in the D'Agostin and Pearson test were prepared using analysis of variance (ANOVA). Parametric post-hoc analysis was performed using Dunnett's test.

[6] = day 32, 1% hydrocortisone, urolithin A 0.2 and 1%

CC(=O)Oc1ccc2c(c1)oc(=O)c1ccccc12 [3-acetyl-urolithin B, reference compound]
TNF-alpha production by THP-1 derived macrophages (TNF-alpha [1]): did not show any activity

O=C(O)[C@H]1O[C@@H](Oc2ccc3c(c2)oc(=O)c2ccccc23)[C@H](O)[C@@H](O)[C@@H]1O [GUB, urolitin B 3-O-glucuronide]
TNF-alpha production by THP-1 derived macrophages (TNF-alpha [1]): did not show any activity

O=C(O)[C@H]1O[C@@H](Oc2ccc3c(c2)oc(=O)c2ccc(O)cc23)[C@H](O)[C@@H](O)[C@@H]1O [GiUA, Iso-urolithin A 3-O-glucuronide]
TNF-alpha production by THP-1 derived macrophages (TNF-alpha [1]): did not show any activity

C[C@]12CCC(=O)C=C1CC[C@@H]1[C@@H]2[C@@H](O)C[C@@]2(C)[C@H]1CC[C@]2(O)C(=O)CO [hydrocortisone]
Time profile of anti-edema effect, urolithin A vs. hydrocortisone ([2]; initial period of therapy (up to 12 days)): greater therapeutic effectiveness | Ear edema (ear thickness) after local therapy ([2]; topical ointment in white petrolatum, urolithin A 0.2 and 1.0%, hydrocortisone 1%, urolithin A p<0.001, hydrocortisone p<0.01): reduced | Scratching rate (frequency of scratch reflexes) [3]: reduction in scratching rate | WBC (leukocyte) level ([4]; 1% composition, day 32, vs petrolatum, hydrocortisone p<0.05, urolithin A p<0.01): significant reduction in WBC | Final WBC values compared to negative control (without atopic dermatitis) ([4]; 1% hydrocortisone, urolithin A 0.2 and 1%): remained at a higher level compared to negative control groups | MPV (fl), PDW (fl), PDWcv (%) ([4]; day 32): did not change | RBC, HGB, HCT, MCV ([4]; day 32): no changes | Thrombocrit (PCT %) ([4]; day 32, 1% composition, vs negative control, p<0.01): significantly higher values compared to the negative control group | Number of thrombocytes (PLT) ([4]; day 32, 1% composition, vs negative control, p<0.05): significantly higher values compared to the negative control group | Concentration of hemoglobin in erythrocytes (MCH and MCHC) ([4]; day 32, 1% hydrocortisone (p<0.05), urolithin A 0.2 and 1.0%): decrease in the concentration of hemoglobin in erythrocytes | RDW parameter level ([4]; day 32, 1% hydrocortisone, p<0.05): decrease in the RDW parameter level | Monocyte population [4, 6]: reducing the population of monocytes and neutrophils | Neutrophil population [4, 6]: reducing the population of monocytes and neutrophils | Lymphocyte level ([4]; day 32, 1% hydrocortisone, urolithin A 0.2 and 1%, vs petrolatum): no significant differences

O=c1oc2cc(O)ccc2c2cc(O)ccc12 [iso-urolithin A]
TNF-alpha production by THP-1 derived macrophages (TNF-alpha [1]): stimulated the production of TNF-alpha | TNF-alpha mRNA expression in THP-1 derived macrophages (mRNA for TNF-alpha): stimulated mRNA expression | ERK1/2 kinase phosphorylation in THP-1 derived macrophages (ERK1/2): much less active | Inhibition of TNF-alpha production by macrophages from human peripheral blood monocytes (TNF-alpha [5]): significantly less active

urolitin A 3-O-glucuronide and urolitin A 8-O-glucuronide [GUA]
TNF-alpha production by THP-1 derived macrophages (TNF-alpha [1]): did not show any activity
